Molecules are shown by their SMILES. pIC50: −log10 of the molar value.

Data on 15 compounds can be found in publication PMC10377601, “Side Chain-Modified Benzothiazinone Derivatives with Anti-Mycobacterial Activity” (Biomedicines, 2023).

The test system of series [1] is M. tuberculosis H37Rv. Kind of series: MIC determination by microplate alamar blue assay (MABA). The series is classed as cell-based. The note with it: Mycobacterium tuberculosis. On the technique in general: Alamar Blue is a resazurin reagent that responds to reducing activity.
The target of series [2] is T1, recombinant M. tuberculosis DprE1 enzyme (Mycobacterium tuberculosis, UniProt P9WJF1).
T1 construct: made in house; host or cells: E. coli
T1 sequence (P9WJF1 whole entry): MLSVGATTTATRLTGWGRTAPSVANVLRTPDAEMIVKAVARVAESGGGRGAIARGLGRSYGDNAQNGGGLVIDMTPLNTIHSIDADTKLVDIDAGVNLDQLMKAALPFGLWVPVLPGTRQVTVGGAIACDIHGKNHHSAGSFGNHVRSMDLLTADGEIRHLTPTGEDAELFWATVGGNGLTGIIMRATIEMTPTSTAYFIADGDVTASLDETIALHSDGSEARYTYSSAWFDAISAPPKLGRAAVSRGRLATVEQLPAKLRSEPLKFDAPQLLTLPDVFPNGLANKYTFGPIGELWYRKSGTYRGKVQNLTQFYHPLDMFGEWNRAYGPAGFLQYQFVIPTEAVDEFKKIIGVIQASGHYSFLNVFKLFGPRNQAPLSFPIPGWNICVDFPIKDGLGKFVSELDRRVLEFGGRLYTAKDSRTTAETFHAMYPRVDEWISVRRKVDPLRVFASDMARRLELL
Kind of series: DprE1 inhibition, Amplex Red/peroxidase coupled assay. The series is classed as biochemical. The following applies: Mtb DprE1.

Series [3] is described as follows: in vitro. The format is in vitro ADME. Also on record: dose or concentration left out as unconfirmed. The following applies: human, microsomes, pH 7.4. As to the method:
The compounds’ metabolic stability were determined in human liver microsomes. A solution of microsomes (0.2 mg/mL) containing the compounds […], NADPH (1 mM), and phosphate buffer (100 mM, pH 7.4) were prepared. Pre-incubation was conducted at 37 °C for 10 min. There was addition of 50 µL and 5 mM NADPH to initiate the reaction. At 5, 15, 30, 60, or 120 min, 30 µL of reaction solution was taken out and quenched with 300 µL internal standard tolbutamide (10 ng/mL) in cold CH3CN. The mixture was centrifuged at 6000 rpm for 15 min at 4 °C. Then, 100 μL supernatant was diluted with 100 uL ultrapure water (Millipore, ZMQS50F01). The solution was analyzed via LC/MS analysis.

The compound `CN(Cc1cn(-c2c(F)cccc2F)nn1)c1nc(=O)c2cc(C(F)(F)F)cc([N+](=O)[O-])c2s1` [Compound 24] showed an MIC in series [1] (Mtb H37Rv, MABA) of 0.259 µM. Besides, in series [2], the negative-log IC50 (pIC50) was 5.14.
Regarding `CN(Cc1cn(-c2ccc(Cl)c(Cl)c2)nn1)c1nc(=O)c2cc(C(F)(F)F)cc([N+](=O)[O-])c2s1` [Compound 26], the MIC was found to be 4 ng/mL in series [1] (H37Rv, Table S1) and 0.036 µM in series [1] (Mtb H37Rv, MABA). In addition, in series [2], the pIC50 is 7.70.
In the same order, the values of `CN(Cc1cn(-c2ccc(F)c(Br)c2)nn1)c1nc(=O)c2cc(C(F)(F)F)cc([N+](=O)[O-])c2s1` [Compound 27] are 129 ng/mL, 0.055 µM and 5.14.
For `CN(Cc1cn(-c2ccc(F)c(Cl)c2)nn1)c1nc(=O)c2cc(C(F)(F)F)cc([N+](=O)[O-])c2s1` [Compound 28], the MIC in series [1] (H37Rv, Table S1) came out at 8 ng/mL; in series [1] (Mtb H37Rv, MABA), 0.029 µM. Besides, in series [2], the pIC50 is 7.39.
The matching figures for `CN(Cc1cn(-c2ccc(Cl)cc2Cl)nn1)c1nc(=O)c2cc(C(F)(F)F)cc([N+](=O)[O-])c2s1` [Compound 29]: 4 ng/mL, 0.023 µM and 7.62.
In the same order, the values of `CN(Cc1cn(-c2cc(Cl)cc(Cl)c2)nn1)c1nc(=O)c2cc(C(F)(F)F)cc([N+](=O)[O-])c2s1` [Compound 30] are 6 ng/mL, 0.047 µM and 7.05.
On to `CN(Cc1coc(-c2ccccc2)n1)c1nc(=O)c2cc(C(F)(F)F)cc([N+](=O)[O-])c2s1` [Compound 31, 2-{methyl[(2-phenyloxazol-4-yl)methyl]amino}-BTZ], for which, in series [1] (H37Rv, Table S1), the MIC amounted to 13 ng/mL. For the same compound, in series [1] (Mtb H37Rv, MABA), it took 0.006 µM to inhibit growth (MIC). Also, the pIC50 in series [2] is 6.66. In series [3], this compound displayed a CLint scaled of 51.7 mL/min/kg and a half-life of 33.6 min.
`CN(Cc1coc(-c2ccc(F)cc2)n1)c1nc(=O)c2cc(C(F)(F)F)cc([N+](=O)[O-])c2s1` [Compound 32]: the minimum inhibitory concentration (MIC) came to 16 ng/mL in series [1] (H37Rv, Table S1) and 0.006 µM in series [1] (Mtb H37Rv, MABA). Also, the negative-log IC50 (pIC50) in series [2] was 6.12.
In the same order, the values of `CN(Cc1coc(-c2cccc(F)c2)n1)c1nc(=O)c2cc(C(F)(F)F)cc([N+](=O)[O-])c2s1` [Compound 33] are 3 ng/mL, 0.021 µM and 7.13.
Turning to `CN(Cc1csc(-c2cccc(F)c2)n1)c1nc(=O)c2cc(C(F)(F)F)cc([N+](=O)[O-])c2s1` [Compound 35], the minimal inhibitory concentration (MIC) in series [1] (168 h, Mtb H37Rv, MABA) was found to be 0.032 µM; in series [1] (H37Rv, Table S1), 7 ng/mL; in series [1] (Mtb H37Rv, MABA), 0.032 µM. In series [2], the negative-log IC50 (pIC50) is 7.19.
`CN(Cc1csc(-c2ccc(F)cc2)n1)c1nc(=O)c2cc(C(F)(F)F)cc([N+](=O)[O-])c2s1` [Compound 36, 2-{[(2-(4-fluorophenyl)thiazol-4-yl)methyl](methyl)amino}-BTZ] had an MIC in series [1] (168 h, Mtb H37Rv, MABA) of 0.034 µM. In series [1] (Mtb H37Rv, MABA), this compound had an MIC of 0.034 µM. Further, in series [3], the CLint scaled is 25.5 mL/min/kg and the half-life was found to be 68.2 min.
`CN(Cc1nnc(-c2ccc(F)cc2)o1)c1nc(=O)c2cc(C(F)(F)F)cc([N+](=O)[O-])c2s1` [Compound 39]: the MIC in series [1] (Mtb H37Rv, MABA) worked out at 0.006 µM.
Compound `CN(Cc1nnc(-c2ccccc2)s1)c1nc(=O)c2cc(C(F)(F)F)cc([N+](=O)[O-])c2s1` [Compound 40, 2-{methyl[(5-phenyl-1,3,4-thiadiazol-2-yl)methyl]amino}-BTZ] registered a minimum inhibitory concentration (MIC) in series [1] (Mtb H37Rv, MABA) of 0.033 µM. In series [3], this compound returned an intrinsic metabolic clearance (CLint scaled) of 50.7 mL/min/kg and a half-life of 34.3 min.
Consider `CN(Cc1nnc(-c2cccc(F)c2)s1)c1nc(=O)c2cc(C(F)(F)F)cc([N+](=O)[O-])c2s1` [Compound 41], for which, in series [1] (Mtb H37Rv, MABA), inhibition of growth (MIC) required 0.024 µM.
Same read-out and setting: the value for `CN(Cc1nnc(-c2ccc(F)cc2)s1)c1nc(=O)c2cc(C(F)(F)F)cc([N+](=O)[O-])c2s1` [Compound 42] was 0.026 µM.

Broadly, the MIC is the least concentration at which growth counts as inhibited. As a reminder, the pIC50 is the negative decadic logarithm of the IC50, by convention in mol/L. Broadly, the CLint scaled is the capacity of the preparation to metabolise the compound, expressed as a volume cleared per time. The term half-life denotes how long it takes for the measured level to halve.
